From patent US20240415808A1, “Dosage Regimen for Fexuprazan Injection Composition” (Daewoong Pharmaceutical Co., Ltd., priority 2021, published 2024)

Assays:
[1] = pharmacokinetic experiment in male rats (oral and tail vein); format: in vivo, rat
Protocol: Methylcellulose was dissolved in physiological saline to prepare a solution containing methylcellulose at a concentration of 0.5 wt %, and then the previously prepared fexuprazan hydrochloride was added thereto to prepare a composition with Fexuprazan at a concentration of 1 mg/mL. The composition prepared above was orally administered to male rats at a dose of 2 mg/kg in a liquid volume of 2 mL/kg depending on the body weight of the individual, and then blood was collected using an orbital blood collection method at 0.25, 0.5, 1, 2, 4, 6, 8, and 24 hours, and centrifuged at 10,000 rpm for 5 minutes. Plasma was collected, analyzed by HPLC-MS/MS, and pharmacokinetic parameters were calculated.
Then, methylcellulose was dissolved in physiological saline to prepare a solution containing methylcellulose at a concentration of 0.5 wt,%, and then the previously prepared fexuprazan hydrochloride was added thereto to prepare a composition with fexuprazan at a concentration of 1 mg/mL. The composition was administered through the tail vein in male rats at a dose of 1 mg/kg in a liquid volume of 1 mL/kg depending on the body weight of the individual. Blood was collected by the same method as in oral administration at 0.083, 0.25, 0.5, 1, 2, 4, 6, 8, and 24 hours, and then analyzed.

[2] = 4-week repeated intravenous toxicity test, rat; format: in vivo
Protocol: The previously prepared fexuprazan hydrochloride was dissolved in a solution containing 30 wt. % of polyethylene glycol (Polyethylene Glycol 400) polymer in physiological saline, and the concentration was calculated based on fexuprazan weight so that it could be administered at a liquid volume of 5 mL/kg for rats and 2 mL/kg for beagle dogs to prepare each composition. Toxicity was evaluated by intravenously administering at doses of 0, 2.5, 5, and 10 mg/kg/day to rats and beagle dogs, respectively, once a day for 4 weeks.

[3] = single intravenous dose-escalation clinical trial, pharmacokinetics; format: in vivo; settings: human, blood, healthy adults
Protocol: (§1) In order to confirm the safety/PK/PD of the compound of the present invention during intravenous administration, the clinical trial was designed with random assignment, double-blind, placebo-controlled, single dose, and stepwise dose-escalation in healthy adults (Korean/Chinese) between the ages of 19 and 50.
A stabilizer (200 mg), a freeze-drying auxiliary agent (200 mg), and the previously prepared fexuprazan hydrochloride (40 mg based on fexuprazan weight) were dissolved in water for injection (4 mL), and an appropriate amount of acid was added thereto to adjust the pH to 4.0. The prepared solution was put into a vial, dried by a freeze-drying method, and prepared as a freeze-drying agent.
(§2) The freeze-dried composition prepared as above was used, but a total of 28 subjects of 4, 8, 8, and 8 subjects each were enrolled for four dose groups (10 mg, 20 mg, 40 mg, and 80 mg) based on fexuprazan weight, and each group was randomly assigned to test or control groups in the order that they passed the screening criteria at a ratio of 3:1. All test subjects completed safety, pharmacokinetic, and pharmacodynamic evaluations according to the planned clinical trial schedule.
The medication was performed in the morning, and the patient was discharged from the hospital on the third day of medication. Subsequently, a close-out visit was performed between the 8th and 11th day of medication.
(§3) Testing of the acidity (pH) in the gastrointestinal tract and gastric secretion promoting hormone gastrin were performed from 24 hours before medication to 24 hours after medication. Blood collection for pharmacokinetics and urine collection for pharmacokinetics were performed for 48 hours from the time of medication.
After a single intravenous administration of four dose groups for fexuprazan, the dose proportionality of fexuprazan to the Cmax, AUClast, and AUCinf parameters was evaluated between doses of 10 mg and 80 mg. The log-transformed parameters and 95% confidence interval regression lines of each dose after a single administration are shown in Table 7 and FIG. 3, respectively. […] That is, it can be confirmed that the pK parameter of intravenous administration is proportional to the dose.
Table 8 and FIG. 4 show the results of the Kruskal Wallis test for dose-normalized Cmax (Cmax/Dose), AUClast (AUClast/Dose), and AUCinf (AUCinf/Dose) between dose groups. […] That is, it can be seen that there is no significant difference between dose groups in the proportional relationship, and the appropriate dose for intravenous administration can be calculated indirectly through the appropriate dose for oral administration.

[4] = single intravenous dose-escalation clinical trial, safety; format: in vivo, human; settings: healthy adults, single intravenous 10, 20, 40, 80 mg
Protocol: as §1, §2, §3

Work on `CNCc1cn(S(=O)(=O)c2cccc(F)c2)c(-c2ccc(F)cc2F)c1OC` [Fexuprazan, 1-(5-(2,4-difluorophenyl)-1-((3-fluorophenyl)sulfonyl)-4-methoxy-1H-pyrrol-3-yl)-N-methylmethanamine] yielded a BA ([1]; PO 2 mg/kg vs IV 1 mg/kg) of 24.7%, an AUC(0-t) ([1]; rat, plasma, IV 1 mg/kg) of 143 ± 38 ng·h/mL and a Vd ([1]; rat, plasma, IV 1 mg/kg) of 20.2 ± 5.2 L/kg. The clearance ([1]; rat, plasma, IV 1 mg/kg) was 114 ± 29 mL/min/kg, the half-life ([1]; rat, plasma, IV 1 mg/kg) was 2.06 ± 0.25 h and the AUC(0-t) ([1]; rat, plasma, PO 2 mg/kg) was 70.9 ± 22.4 ng·h/mL. It also gave a Cmax ([1]; rat, plasma, PO 2 mg/kg) of 23.8 ± 10.7 ng/mL, a Tmax ([1]; rat, plasma, PO 2 mg/kg) of 0.833 ± 0.289 h and a half-life ([1]; rat, plasma, PO 2 mg/kg) of 1.74 ± 0.16 h. The “Result: harmless dose” value ([2]; Rat, 4 weeks, intravenous, doses 0, 2.5, 5, 10) was “harmless dose 10 mg/kg”, the “toxic symptoms due to the test substance” value ([2]; rats, 2.5, 5, 10 mg/kg/day intravenous, 4 weeks) was “no toxic symptoms due to the test substance were observed in all administration groups” and the harmless dose ([2]; rats, intravenous once a day for 4 weeks) was 10 mg/kg/day. For the same compound, the AUC(0-inf) ([3]; single intravenous 10 mg) was 240 ± 31.3 ng·h/mL, the AUC(0-t) ([3]; single intravenous 10 mg) was 235 ± 32.3 ng·h/mL and the clearance ([3]; single intravenous 10 mg) was 702 mL/min. The half-life ([3]; single intravenous 10 mg) was 9.04 ± 0.85 h, the Cmax ([3]; single intravenous 10 mg (N = 3)) was 93.7 ± 13.9 ng/mL and the AUC(0-inf) ([3]; single intravenous 20 mg) was 514 ± 113 ng·h/mL. It also gave an AUC(0-t) ([3]; single intravenous 20 mg) of 502 ± 111 ng·h/mL, a clearance ([3]; single intravenous 20 mg) of 677 mL/min and a half-life ([3]; single intravenous 20 mg) of 8.61 ± 1.89 h. It also gave a Cmax ([3]; single intravenous 20 mg (N = 6)) of 185 ± 32.3 ng/mL, an AUC(0-inf) ([3]; single intravenous 40 mg) of 1100 ± 238 ng·h/mL and an AUC(0-t) ([3]; single intravenous 40 mg) of 1070 ± 225 ng·h/mL. It also gave a clearance ([3]; single intravenous 40 mg) of 630 mL/min, a half-life ([3]; single intravenous 40 mg) of 8.84 ± 0.96 h and a Cmax ([3]; single intravenous 40 mg (N = 6)) of 321 ± 75.7 ng/mL. The AUC(0-inf) ([3]; single intravenous 80 mg) was 2380 ± 301 ng·h/mL, the AUC(0-t) ([3]; single intravenous 80 mg) was 2290 ± 271 ng·h/mL and the clearance ([3]; single intravenous 80 mg) was 567 mL/min. The half-life ([3]; single intravenous 80 mg) was 10.2 ± 1.84 h, the Cmax ([3]; single intravenous 80 mg (N = 6)) was 633 ± 165 ng/mL and the “serious abnormalities or side effects” value [4] was “no serious abnormalities or side effects were observed”.
